Assay results as given in article PMC8584229, “Comparative Antiseizure Analysis of Diverse Natural Coumarin Derivatives in Zebrafish” (International Journal of Molecular Sciences, 2021).
Like-named read-outs stand apart in the source and are kept apart here.

What was measured:
[1] = system: GABAA receptor; set-up: method as in PMID 21749864; settings: cited from earlier work; for EC50: read-out: EC50 (potentiation of IGABA)
[2] = system: PTZ-induced seizure-like behavior (locomotor activity) of zebrafish larvae; assay: Larval zebrafish PTZ seizure model, locomotor analysis (behavioral antiseizure activity); format: in vivo, zebrafish (Danio rerio); settings: for antiseizure activity in the locomotor assay (in words) / lowered seizure-like behavior / decrease of PTZ-induced locomotor activity / lowered PTZ-induced locomotion / decrease of seizure-like behavior: 20 mM PTZ; for antiseizure activity in the locomotor assay (in words): up to MTC; for lowered seizure-like behavior: abstract summary, highest effect, 18 h pre-incubation; for decrease of PTZ-induced locomotor activity: range over all test concentrations (MTC and 2-, 4-, 8-fold dilutions)
Experimental: The effect of different concentrations of test compounds was explored on the locomotor behavior of larvae exposed to the GABA-antagonist PTZ. All compounds were tested at four concentrations—the maximum tolerated concentration (MTC) and two-fold, four-fold, and eight-fold dilutions of the MTC. […] In all experiments, as expected, the positive control VPA (1 mM) decreased seizure-like behavior (i.e., PTZ-induced elevated locomotor activity) with an average (±SD) of 44 ± 34%. […] The antiseizure effect depended on either the type of coumarin or the concentration.
Adult zebrafish (Danio rerio) stocks of the AB strain were maintained at 28.5 °C, on a 14/10 h light/dark cycle under standard aquaculture conditions, and fertilized eggs were collected via natural spawning. Embryos were reared under standard light/dark conditions in embryo medium (1.5 mM HEPES, pH 7.1–7.3, 17.4 mM NaCl, 0.21 mM KCl, 0.12 mM MgSO4, 0.18 mM Ca(NO3)2, and 0.6 μM methylene blue) in an incubator at 28.5 °C. For all measurements, 7-days post-fertilization (dpf) larvae were used, which were treated at 6 dpf. The zebrafish experiments described here were approved by the Local Ethics Committee in Lublin (license no: 109/2018), the Ethics Committee of the University of Leuven (approval number 023/2017), and the Belgian Federal Department of Public Health, Food Safety & Environment (approval number LA1210199). All experiments complied with the EU Directive 2010/63/EU for animal experiments.
All compounds were dissolved in dimethyl sulfoxide (DMSO) and diluted in embryo medium to achieve a final DMSO concentration of 1% v/v. Embryo medium prepared with DMSO to a final concentration of 1% v/v served as a vehicle (VHC) control. PTZ (40 mM) was dissolved in embryo medium. The control anticonvulsant used in this study was VPA.
Six-dpf larvae were treated with VHC (embryo medium (1% DMSO)), VPA (1 mM), or tested compound, in 100 µL volume for 18 h, in individual wells of a 96-well plate at 28.5 °C in the dark. Larvae were allowed to habituate for 5 min in a dark chamber of an automated tracking device (ZebraBox system, Viewpoint, Lyon, France). Then, 100 µL of embryo medium or 100 µL of a 40 mM PTZ solution was added to obtain a final concentration of 20 mM [33] and the locomotor activity was measured to evaluate seizure intensity. The total locomotor activity was quantified using ZebraLab software (Viewpoint, Lyon, France). Total locomotor activity was expressed as total distance moved. All tracking experiments were performed at least in triplicate.
(§1) All statistical analyses were performed using GraphPad Prism 5 or 7 software (GraphPad Software, Inc., San Diego, CA, USA). The locomotor activity of zebrafish larvae and electrophysiological antiseizure analysis was evaluated using one-way ANOVA followed by Dunnett’s multiple comparisons test. Values were presented as lardist sum ± standard error of the mean (SEM) or normalized PSD (%) ± standard error of the mean (SEM). Lardist is large movement distance (>6 mm/s), measured in millimeters. Significance levels: * p ≤ 0.05, ** p ≤ 0.01, and *** p ≤ 0.001.

[3] = system: maximal electroshock-induced seizures; settings: cited from earlier work; for ED50 of classic anticonvulsant alone: without umbelliferone
[4] = system: PTZ-induced epileptiform activity in the zebrafish larval optic tectum; assay: Local field potential recordings from the optic tectum, power spectral density analysis; format: in vivo, zebrafish (Danio rerio); settings: MTC, 18 h incubation; 20 mM PTZ; 20–90 Hz band
Experimental: To further investigate the results of the behavioral study for all eight selected compounds, local field potential (LFP) measurements were employed. Zebrafish larvae were incubated with the compounds at their MTC for 18 h in darkness and the epileptiform activity was measured in the zebrafish larval optic tectum. A significant reduction in larvae with PTZ-induced epileptiform activity was observed, in comparison to PTZ-treated controls, for all compounds except nodakenetin (Figure 3).
For the rapid, objective, and automated analysis of the LFP recordings, power spectral density (PSD) analysis was performed. This methodology was previously developed and used for zebrafish electrophysiology. It relies on the Welch’s method of averaging the modified periodograms with a 512-point fast Fourier transformation with 80% overlapping 100 sample (100 ms) long segments and a Hamming window. PSDs were estimated for each LFP recording over each 10 Hz frequency band, ranging from 0 to 160 Hz. All examined furanocoumarins at the MTC concentration ameliorated the excitatory effect of preincubation with PTZ. Oxypeucedanin (1), oxypeucedanin hydrate (2), and notopterol (3) decreased normalized PSD per larva to a similar level with 83–89%. […] Pimpinellin (14, an angular furanocoumarin), daphnoretin (17, a simple coumarin derivative), and hyuganin C (18, a dihydropyranocoumarin) decreased normalized PSD by 81, 88, and 65%, respectively.
Non-invasive local field potential recordings were performed from the optic tectum of 7-dpf zebrafish larvae. Larvae were treated with VHC (embryo medium (1% DMSO)) or compound (MTC) in 100 µL volume (in individual wells of a 96-well plate) in darkness (28 °C) for 18 h before measurement. Prior to the recording, 100 µL of VHC (embryo medium) or 40 mM PTZ (to obtain a final concentration of 20 mM) was added to the well for 15 min. After incubation, the larva was immobilized in 2% low-melting-point agarose (Invitrogen, Carlsbad, CA, USA) and the signal electrode, an electrode inside a blunt soda-glass pipet (1412227, Hilgenberg, Germany), was positioned on the skin covering the optic tectum. Electrophysiological recordings where performed as described before. Automated power spectral density analysis was performed using MATLABR2018b (The MathWorks, Inc., Natick, MA, USA), as described before.
as §1

[5] = system: seizure-related locomotor activity of zebrafish; set-up: method as in PMID 30668376; settings: cited from earlier work

CC(C)=CCOc1c2occc2cc2ccc(=O)oc12 [imperatorin]
enhancement of IGABA [1]: greater than 20% | antiseizure activity in the locomotor assay (in words) [2]: lack of antiseizure activity | raised threshold for electroconvulsions ([3]; 50 mg/kg i.p., mice): 38% | raised threshold for electroconvulsions ([3]; 100 mg/kg i.p., mice): 68%

CCC1(c2ccccc2)C(=O)NC(=O)NC1=O [PB, phenobarbital, reference compound]
ED50 of classic anticonvulsant alone ([3]; mice): 35.39 mg/kg

COc1c2ccoc2c(OCC=C(C)C)c2oc(=O)ccc12 [phellopterin]
enhancement of IGABA [1]: greater than 20% | antiseizure activity in the locomotor assay (in words) [2]: lack of antiseizure activity

CC1(C)O[C@H]1COc1c2ccoc2cc2oc(=O)ccc12 [oxypeucedanin]
current in the absence of GABA (in words) [1]: neither of them induced a current in the absence of GABA | enhancement of IGABA [1]: greater than 20% | EC50 [1]: 25 ± 8 µM | lowered seizure-like behavior [2]: 38% | decrease of PTZ-induced locomotor activity [2]: 23–38% | protective properties in MES test (in words) ([3]; mice): did not show protective properties | decrease of normalized PSD (PTZ-induced elevation in power spectral density) [4]: 83–89%

COc1c(OC)c2occc2c2oc(=O)ccc12 [pimpinellin]
enhancement of IGABA [1]: greater than 20% | lowered seizure-like behavior [2]: 60% | decrease of normalized PSD (PTZ-induced elevation in power spectral density) [4]: 81%

COc1c2ccoc2cc2oc(=O)ccc12 [bergapten]
protective properties in MES test (in words) ([3]; mice): did not show protective properties

CCCC(CCC)C(=O)O [VPA, valproic acid, reference compound]
decrease of seizure-like behavior (PTZ-induced elevated locomotor activity), average ± SD ([2]; positive control, 1 mM, all experiments): 44 ± 34% | ED50 of classic anticonvulsant alone ([3]; mice): 281.4 mg/kg

CC1(C)O[C@@H]1COc1c2occc2cc2ccc(=O)oc12 [heraclenin, reference compound]
enhancement of IGABA [1]: greater than 20%

O=c1ccc2ccc(O)cc2o1 [umbelliferone, 7-hydroxycoumarin]
antiseizure activity in the locomotor assay (in words) [2]: not active | increase of the electroshock threshold ([3]; 150 mg/kg i.p., 30 min before electroshock): around 37%

CC(C)=CC(O)C/C(C)=C/COc1c2ccoc2cc2oc(=O)ccc12 (stereo not shown) [notopterol]
lowered PTZ-induced locomotion ([2]; 2 µM): 54% | lowered PTZ-induced locomotion ([2]; 0.25–1 µM): 35–39% | lowered seizure-like behavior [2]: 54% | decrease of normalized PSD (PTZ-induced elevation in power spectral density) [4]: 83–89%

CC(C)=CCCC(C)=CCOc1c2occc2cc2ccc(=O)oc12 [8-geranyloxypsoralen]
antiseizure activity in the locomotor assay (in words) [2]: lack of antiseizure activity

COc1c2ccoc2c(OC[C@H]2OC2(C)C)c2oc(=O)ccc12 [byakangelicol]
antiseizure activity in the locomotor assay (in words) [2]: lack of antiseizure activity

CC(C)(O)[C@H]1Cc2cc3ccc(=O)oc3cc2O1 [nodakenetin]
lowered seizure-like behavior [2]: 29% | decrease of normalized PSD (PTZ-induced elevation in power spectral density) [4]: 26%

CC(C)(O)[C@H](O)COc1c2ccoc2cc2oc(=O)ccc12 [oxypeucedanin hydrate]
lowered seizure-like behavior [2]: 74% | decrease of PTZ-induced locomotor activity [2]: 43–74% | decrease of normalized PSD (PTZ-induced elevation in power spectral density) [4]: 83–89%

CC(C)=CCOc1c2ccoc2cc2oc(=O)ccc12 [isoimperatorin]
enhancement of IGABA [1]: greater than 20%

CC(C)(O[C@@H]1O[C@H](CO)[C@@H](O)[C@H](O)[C@H]1O)[C@H]1Cc2cc3ccc(=O)oc3cc2O1 [nodakenin]
antiseizure activity in the locomotor assay (in words) [2]: inactive | decrease of normalized PSD (PTZ-induced elevation in power spectral density) [4]: 77%

CC[C@H](C)C(=O)OC1c2c(ccc3ccc(=O)oc23)OC(C)(C)C1OC(C)=O (stereo partly shown) [hyuganin C]
decrease of seizure-like behavior ([2]; 10 µM): 27% | decrease of seizure-like behavior ([2]; 20 µM): 35% | lowered seizure-like behavior [2]: 35% | decrease of normalized PSD (PTZ-induced elevation in power spectral density) [4]: 65%

C1CCc2nnnn2CC1 [PTZ, pentylenetetrazole, reference compound]
increase in seizure-like behavior and locomotor activity (lardist sum), average ± SD ([2]; proconvulsant, 20 mM, all experiments): 59 ± 35%

COc1c2occc2cc2ccc(=O)oc12 [xanthotoxin, reference compound]
ED50 (anticonvulsant activity) ([3]; administered 60 min before electroconvulsion, mice): 219.1 ± 4.7 mg/kg

COc1cc2cc(Oc3ccc4ccc(=O)oc4c3)c(=O)oc2cc1O [daphnoretin]
lowered seizure-like behavior [2]: 65% | decrease of PTZ-induced locomotor activity [2]: 42–65% | decrease of normalized PSD (PTZ-induced elevation in power spectral density) [4]: 88%

COc1c2ccoc2c(OC[C@@H](O)C(C)(C)O)c2oc(=O)ccc12 [byakangelicin]
antiseizure activity in the locomotor assay (in words) [2]: lack of antiseizure activity

CC(C)=CCC/C(C)=C/COc1c2ccoc2cc2oc(=O)ccc12 [bergamottin]
inhibition (antiseizure, locomotor activity) ([5]; most active concentration, 2 µM): 26%

lucidafuranocoumarin A
inhibition (antiseizure, locomotor activity) ([5]; 16 µM): 69%

COc1ccc2ccc(=O)oc2c1CC=C(C)C [osthole]
current in the absence of GABA (in words) [1]: neither of them induced a current in the absence of GABA | enhancement of IGABA [1]: greater than 20% | EC50 [1]: 14 ± 1 µM | antiseizure activity in the locomotor assay (in words) [2]: not active | protection of the animals against MES ([3]; 266 and 259 mg/kg i.p., between 15 and 30 min before the test): ~90% | effect on the anticonvulsant activity of CBZ, PB, PHT and VPA on co-administration (in words) ([3]; mice): did not have a significant effect
